Each structure is given as a SMILES string. Where a name gives a salt, the structure may show the parent alone.

Data on 25 compounds can be found in patent publication US6281356A, “Substituted pyrroles” (Hoffmann-La Roche Inc., priority 2000, dated 2001).

For this test, the system named is epithelial breast carcinoma cell line (MDAMB-435). Put plainly: Antiproliferative activity (growth inhibition, MTT), epithelial breast carcinoma cell line MDAMB-435. Format: cell-based. The conditions noted are these: Homo sapiens, MDA-MB-435, 120 h, 5 days post drug addition, 0.1% DMSO, read-out: IC50 (growth inhibition of MDAMB-435 cells). The method, then: The epithelial breast carcinoma cell line (MDAMB-435) was purchased from ATCC (American Type Cell Culture Collection) and was grown in culture medium as recommended by ATCC. For analysis of the effect of various compounds of formula I on the growth of these cells, the cells were plated at a concentration of 1500 cells/well in a 96 well tissue culture plate ("test plate"). The day after the cells were plated, the compounds to be analyzed were dissolved in 100% DMSO (dimethyl sulfoxide) to yield at 10 mM stock solution. Each compound was diluted in H2 O to 1 mM and was added to triplicate wells in the first row of a 96 well master plate containing medium to yield a final concentration of 40 μM. The compounds were then serially diluted in medium in the "master plate". The diluted compound(s) were then transferred to test plates containing cells. A row of vehicle "control cells" received DMSO. The final concentration of DMSO in each well was 0.1%. 5 days post drug addition, the plate was analyzed as described below.
MTT (3-(4-5 methyl thiazole-2-yl)-2,5-diphenyl tetrazolium bromide; thiazolyl blue) was added to each well to yield a final concentration of 1 mg/ml. The plate was then incubated at 37° C. for 21/2-3 hours. The MTT-containing medium was then removed and 50 μl of 100% ethanol was added to each well to dissolve the formazan. The absorbences were then read using an automated plate reader (Bio-tek microplate reader). IC50 s were calculated using the Reed and Munsch equation, see Am. J. Hygiene Vol. 27 pgs. 493-497,1938.
What is called IC50 is the concentration that gives 50% inhibition. Take `Cn1cc(C2=C(c3cn(C)c4cc(N5CCCC5)ccc34)C(=O)NC2=O)c2ccccc21` [Example 12j, 3-(1-Methyl-1H-indol-3-yl)-4-(1-methyl-6-pyrrolidin-1-yl-1H-indol-3-yl)pyrrole-2,5-dione]: the IC50 was determined as 60 nM.

Turning to `Cn1cc(C2=C(c3cn(C)c4cc([N+](=O)[O-])ccc34)C(=O)NC2=O)c2ccc(N3CCOCC3)cc21` [Example 12a, 3-(1-Methyl-6-morpholin-4-yl-1H-indol-3-yl)-4-(1-methyl-6-nitro-1H-indol-3-yl)pyrrole-2,5-dione], the IC50 is < 10 nM.

With `Cn1cc(C2=C(c3c[nH]c4cc(N5CCCC5)ccc34)C(=O)NC2=O)c2ccc(F)cc21` [Example 12e, 3-(6-Fluoro-1-methyl-1H-indol-3-yl)-4-(6-pyrrolidin-1-yl-1H-indol-3-yl)pyrrole-2,5-dione], the IC50 was 3 nM.

In the case of `COCn1cc(C2=C(c3cn(C)c4cc([N+](=O)[O-])ccc34)C(=O)NC2=O)c2ccc(N3CCCC3)cc21` [Example 12g, 3-(1-Methoxymethyl-6-pyrrolidin-1-yl-1H-indol-3-yl)-4-(1-methyl-6-nitro-1H-indol-3-yl)pyrrole-2,5-dione], the IC50 amounted to 20 nM.

As to `CN1CCN(c2ccc3c(C4=C(c5cn(C)c6ccccc56)C(=O)NC4=O)cn(C)c3c2)CC1` [Example 12k, 3-(1-Methyl-1H-indol-3-yl)-4-[1-methyl-6-(4-methyl-piperazin-1-yl)-1H-indol-3-yl]pyrrole-2,5-dione], the IC50 was 3410 nM.

As to `Cn1ccnc1-c1ccc2c(C3=C(c4cn(C)c5cc([N+](=O)[O-])ccc45)C(=O)NC3=O)cn(C)c2c1` [Example 2c, 3-[1-Methyl-6-(1-methyl-1H-imidazol-2-yl)-1H-indol-3-yl]-4-(1-methyl-6-nitro-1H-indol-3-yl)pyrrole-2,5-dione], the IC50 turned out to be 30 nM.

Consider `COCc1ccc2c(C3=C(c4cn(C)c5cc(N6CCOCC6)ccc45)C(=O)NC3=O)cn(C)c2c1` [Example 16, 3-(6-methoxymethyl-1-methyl-1H-indol-3-yl)-4-(1-methyl-6-morpholin-4-yl-1H-indol-3-yl)pyrrole-2,5-dione], for which the IC50 is 1180 nM.

As for `Cn1cc(C2=C(c3cn(C)c4cc([N+](=O)[O-])ccc34)C(=O)NC2=O)c2ccc(-c3ccco3)cc21` [Example 2h, 3-(6-Furan-2-yl-1-methyl-1H-indol-3-yl)-4-(1-methyl-6-nitro-1H-indol-3-yl)pyrrole-2,5-dione], the IC50 was 10 nM.

For `Cn1cc(C2=C(c3cn(C)c4cc([N+](=O)[O-])ccc34)C(=O)NC2=O)c2ccc(-c3cnc[nH]3)cc21` [Example 2f, 3-[6-(3H-Imidazol-4-yl)-1-methyl-1H-indol-3-yl]-4-(1-methyl-6-nitro-3-yl)pyrrole-2,5-dione hydrochloride], the half-inhibitory concentration (IC50) turned out to be 20 nM.

Consider `Cn1cc(C2=C(c3cn(C)c4cc([N+](=O)[O-])ccc34)C(=O)NC2=O)c2ccc(N3CCCC3)cc21` [Example 12d, 3-(1-Methyl-6-nitro-1H-indol-3-yl)-4-(1-methyl-6-pyrrolidin-1-yl-1H-indol-3-yl)pyrrole-2,5-dione], for which the IC50 stood at 2 nM.

For `Cn1cc(C2=C(c3c[nH]c4ccccc34)C(=O)NC2=O)c2ccc(N3CCCC3)cc21` [Example 12i, 3-(1H-indol-3-yl)-4-(1-methyl-6-pyrrolidin-1-yl-1H-indol-3-yl)-pyrrole-2,5-dione], the 50% inhibitory concentration (IC50) turned out to be 80 nM.

For `Cn1cc(C2=C(c3cn(C)c4cc(N5CCCC5)ccc34)C(=O)NC2=O)c2ccc(Cl)cc21` [Example 14i, 3-(6-Chloro-1-methyl-1H-indol-3-yl)-4-(1-methyl-6-pyrrolidin-1-yl-1H-indol-3-yl)pyrrole-2,5-dione], the concentration for half-maximal inhibition (IC50) came out at 10 nM.

On to `Cn1cc(C2=C(c3cn(C)c4cc([N+](=O)[O-])ccc34)C(=O)NC2=O)c2ccc(-c3cccs3)cc21` [Example 4d, 3-(1-Methyl-6-nitro-1H-indol-3-yl)-4-(1-methyl-6-thiophen-2-yl-1H-indol-3yl)-pyrrole-2,5-dione], for which the IC50 stood at 20 nM.

As to `Cn1cc(C2=C(c3cn(C)c4cc(-n5ccnc5)ccc34)C(=O)NC2=O)c2ccc(Br)cc21` [Example 10a, 3-(6-Bromo-1-methyl-1H-indol-3-yl)-4-(6-imidazol-1-yl-1-methyl-1H-indol-3-yl)-pyrrole-2,5-dione], the IC50 stood at 25 nM.

On to `Cn1cc(C2=C(c3cn(C)c4cc(-c5cccs5)ccc34)C(=O)NC2=O)c2ccccc21` [Example 3, 3-(1-Methyl-1H-indol-3-yl)-4-(1-methyl-6-thiophen-2-yl-1H-indol-3-yl)pyrrole-2,5 dione], for which the IC50 came out at 40 nM.

As for `Cn1cc(C2=C(c3cn(C)c4cc(N5CCOCC5)ccc34)C(=O)NC2=O)c2ccc(C#N)cc21` [Example 13, 1-Methyl-3-[4-(1-methyl-6-morpholin-4-yl-1H-indol-3-yl)-2,5-dioxo-2,5-dihydro-1H-pyrrole-3-yl]-1H-indole-6-carbonitrile], the IC50 stood at 4 nM.

Consider `CCn1ccnc1-c1ccc2c(C3=C(c4cn(C)c5cc([N+](=O)[O-])ccc45)C(=O)NC3=O)cn(C)c2c1` [Example 2d], for which the IC50 turned out to be 120 nM.

As for `Cn1cc(C2=C(c3cn(C)c4cc(N5CCCC5)ccc34)C(=O)NC2=O)c2ccc(Br)cc21` [Example 14f, 3-(6-Bromo-1-methyl-1H-indol-3-yl)-4-(1-methyl-6-pyrrolidin-1-yl-1H-indol-3-yl)pyrrole-2,5-dione], the concentration for half-maximal inhibition (IC50) is 5 nM.

With `Cn1cncc1-c1ccc2c(C3=C(c4cn(C)c5ccccc45)C(=O)NC3=O)cn(C)c2c1` [Example 2a, 3-(1-Methyl-1H-indol-3-yl)-4-[1-methyl-6-(3-methyl-3H-imidazol-4-yl)-1H-indol-3-yl]pyrrole-2,5-dione], the IC50 worked out at 50 nM.

Consider `Cn1cc(C2=C(c3c[nH]c4cc(N5CCOCC5)ccc34)C(=O)NC2=O)c2ccccc21` [Example 12o, 3-(1-Methyl-1H-indol-3-yl)-4-(6-morpholin-4-yl-1H-indol-3-yl)pyrrole-2,5-dione], for which the IC50 was determined as 37 nM.

With `Cn1cc(C2=C(c3cn(C)c4cc(-c5ccsc5)ccc34)C(=O)NC2=O)c2ccccc21` [Example 5, 3-(1-Methyl-1H-indol-3-yl)-4-(1-methyl-6-thiophen-3-yl-1H-indol-3-yl)pyrrole-2,5-dione], the IC50 stood at 40 nM.

`Cn1cc(C2=C(c3cn(C)c4cc([N+](=O)[O-])ccc34)C(=O)NC2=O)c2ccc(OCCn3ccnc3)cc21` [Example 17, 3-[6-(2-Imidazol-1-yl-ethoxy)-1-methyl-1H-indol-3-yl]-4-(1-methyl-6-nitro-1H-indol-3-yl)pyrrole-2,5-dione]: the 50% inhibitory concentration (IC50) stood at 70 nM.

Regarding `Cn1cc(C2=C(c3cn(C)c4cc(-n5ccnc5)ccc34)C(=O)NC2=O)c2ccc(C#N)cc21` [Example 10b, 3-[4-(6-Imidazol-1-yl-1-methyl-1H-indol-3-yl)-2,5-dioxo-2,5-dihydro-1H-pyrrole-3-yl]-1-methyl-1H-indole-6-carbonitrile], the IC50 came out at 30 nM.

With `Cn1cc(C2=C(c3cn(C)c4cc(N5CCOCC5)ccc34)C(=O)NC2=O)c2ccccc21` [Example 11, 3-(1-Methyl-1H-indol-3-yl)-4-(1-methyl-6-morpholin-4-yl-1H-indol-3-yl)pyrrole 2,5-dione], the IC50 is 20 nM.

`Cn1cc(C2=C(c3c[nH]c4cc(N5CCCC5)ccc34)C(=O)NC2=O)c2ccc(Cl)cc21` [Example 12f, 3-(6-Chloro-1-methyl-1H-indol-3-yl)-4-(6-pyrrolidin-1-yl-1H-indol-3-yl)pyrrole-2,5-dione]: the IC50 is < 3 nM.
